Literature values in EP0333071A2, “Polypeptides, methods for their preparation, pharmaceutical compositions comprising them and use” (Eisai Co., Ltd., priority 1988, dated 1989).

Test system: enhancement in the quantity of spontaneous motion induced by methamphethamine
Details: general administration; comparison statement for neurotensin or derivatives thereof

In the case of neurotensin, the methamphethamine antagonism is listed as “hardly exhibit methamphethamine antagonism”.
